Reference: patent US10076511B2, “Bisamide derivative of dicarboxylic acid as an agent for stimulating tissue regeneration and recovery of diminished tissue function” (TREAMID GmbH, priority 2015, dated 2018)
Where “and” joins values, the source holds several entries; their conditions need not be identical. Equal entries are not always repeated.

Assays:
[1] = test system: male C57BL/6 mice; experiment: Streptozotocin-induced pancreatic lesion model; type: in vivo, mouse; design: The number of piconized cells per islet (pixel): unit not given here
Description: The study was performed on male C57BL/6 mice of 4 week old. Pancreatic damage was induced by intraperitoneal injection of streptozotocin at a dose of 40 mg/kg in 0.25 ml of phosphate buffer every day for 5 days [Szkudelski T. The Mechanism of Alloxan and Streptozotocin Action in B Cells of the Rat Pancreas//Physiological Research.—2001.—Vol. 50.—P. 536-546].
Treamid at a dose of 1 mg/kg was administered daily intragastrically once daily on Days 7-20 of the study.
On Days 0, 6, 10, 13, 16, 19, 21, 24, and 28 of the study, blood glucose was determined. The blood glucose level was determined after four-hour deprivation of feed with a glucometer (SencoCard glucometer, “77 Electronics Kft”, Hungary).
On Day 28 of the study, the animals were euthanized in a CO2 chamber, the pancreas was subjected to a morphological examination, and the pancreatic homogenate was studied on an enzyme-linked immunosorbent assay for common collagen and type I collagen.
For morphological study, a part of the pancreas adjacent to the spleen was fixed in 10% formalin and poured into paraffin. Deparaffined sections of the gland were stained with hematoxylin and eosin. On the sections, the area of 10 serial islets of Langerhans was determined by graphic computer analysis, and the total number of cells and the number of pyknotized cells were counted therein. Then, the number of cells per unit islet area and the percentage of the pyknotized cells were calculated.
Inflammatory cells (neutrophils, lymphocytes, macrophages) in the pancreatic tissue and their composition were studied by staining of the histological sections with hematoxylin-eosin and azur-eosin.
The level of mouse type I collagen in a […] was determined by enzyme-linked immunosorbent assay (Cusabio Biotech CO., LTD, China). The lung tissue homogenate was prepared according to the protocol of the manufacturer, Cusabio Biotech CO., LTD (China).
The level of the total collagen in the lung homogenate was determined by using a SIRCOL Collagen Assay kit (Biocolor Ltd, UK) for determining collagen by binding it to a dye and treating with an acid and a solution of pepsin, according to the manufacturer's instructions. The lung tissue homogenate was prepared according to the protocol of manufacturer's test system.

[2] = test system: male Wistar rats; experiment: Pair-test of sexual behavior, seasonal suppression of copulatory activity; type: in vivo, rat
Description: Seasonal suppression of reproductive activity was simulated by carrying out the experiment in the winter period (end of December). As a background group, intact animals (3 months of age) were tested in June.
The experiments were carried out on 27 male Wistar rats of reproductive age (3 months). Treamid at a dose of 5 mg/kg and reference drug Sildenafil (at a dose of 3 mg/kg) were administered intragastrically […], once daily for 15 days. The sexual activity was estimated by the pair-test of sexual behavior. The test was carried out twice: before administration and one hour after the last administration of Treamid. The rats of the control groups receiving the solvent were tested at the same time as the animals of the experimental groups.
The experiment also comprised the use of female rats in the estrus stage caused by a preliminary 4-fold injection of the Synestrel. The effectiveness of Treamid was estimated by the following indices: latency until the first mating attempt (LFM), the number of mating attempts (MN), and the number of ejaculations (EN). The obtained data were compared with those of the same animals before the administration of the tested compound and with the data of the control group (the second test).

[3] = test system: male Wistar rats; experiment: Sexual incentive motivation test, rats of late reproductive age; type: in vivo, rat
Description: Erectile dysfunction was simulated by using animals of late and senile reproductive age (14-19 months). Suppression of sexual motivation was simulated by using animals of late reproductive age (14 months).
Experiments on studying the effect of Treamid on sexual motivation were carried out on 40 male Wistar rats (14 months of age). A model for a targeted search for novel agents for the therapy of this pathology was used as an experimental model of sexual incentive motivation in rats [Xi Chu, Ekaterina S. Zhavbert, Julia L. Dugina, Irina A. Kheyfets, Svetlana A. Sergeeva, Oleg I. Epstein, Anders Agmo Sindenafil and a compound stimulating endothelial NO synthase modity sexual incentive motivation and copulatory behavior in male wistar and fisher 344//J Sex Med.—2008.—5.—P. 2085-2009]. This model is based on the fact that rats are social animals and seek not only sexual, but also social contacts. The assessment of sexual motivation involves determining the time spent near a sexual stimulus and the score of preference in animals without direct contact with “social” and “sexual” stimuli. The sexual stimulus was a female rat in estrus stage, and the social stimulus was a male rat.

[4] = test system: male C57BL/6 mice; experiment: Streptozotocin-induced pancreatic lesion model; type: in vivo, mouse; conditions: Day 28; Treamid 1 mg/kg
[5] = test system: male Wistar rats; experiment: Sperm motility in asthenospermia simulated with Etoposide; type: in vivo, rat; conditions: for percentage of motile sperm cells: Treamid 5.0 mg/kg for 10 days after administration of Etoposide; for The number of motile sperm cells (in %): 5 days before and 5 days after Etoposide (preventive course), Treamid 5.0 mg/kg
Description: The use of the drug that induces an increase in the free radical level was due to the fact that according to modern ideas, the direct cause of asthenospermia is oxidative stress (Kao S. H. et. al. Increase of oxidativestress in human sperm with lower motility. Fertil. and Steril. 2008; 89: 5: 1183-1190).
The experiments were performed on 50 male Wistar rats (3 months of age). Etoposide was administered once intravenously at the maximum tolerated dose of 30 mg/kg.
The effectiveness of Treamid was assessed by the percentage of motile sperm forms isolated from the epididymis.
In the first series, the results of the studies were compared with those obtained for administration of the reference drug, Speman, that was administered intragastrically at a dose of 140 mg/kg.

[6] = first test, before administration, winter period
[7] = second test, one hour after last administration, Treamid 5.0 mg/kg, Sildenafil 3 mg/kg intragastrically, 15 days
[8] = 14-month rats, Second test, after administration of the test compound, Treamid 5 mg/kg, Sildenafil 3 mg/kg, 14 days
[9] = 14-month rats, first test, before administration

Q: With `O=C(CCCC(=O)NCCc1ncc[nH]1)NCCc1ncc[nH]1` [Treamid] as the molecule, how does the “The area of the islet tissue (pixel)” value ([1]; Day 28, Treamid 1 mg/kg) read?
A: 635770 ± 56163• pixel

Q: And the “The number of piconized cells per islet (pixel)” value ([1]; Day 28, Treamid 1 mg/kg)?
A: 1.75 ± 0.14

Q: And the “The total number of cells in the islet of Langerhans (×10^4)” value ([1]; Day 28, Treamid 1 mg/kg)?
A: 109.9 ± 12.6• ×10^4

Q: What about the “blood glucose level (mM/L)” value ([1]; Initial level) of the same molecule?
A: 5.1 ± 0.1 mM/L

Q: What about the “blood glucose level (mM/L)” value ([1]; day 6 after the last administration of streptozotocin (before Treamid, given Days 7-20)) of the same molecule?
A: 10.8 ± 0.4 mM/L

Q: And the “blood glucose level (mM/L)” value ([1]; day 10, Treamid 1 mg/kg intragastrically Days 7-20)?
A: 11.2 ± 0.2 mM/L

Q: And the “blood glucose level (mM/L)” value ([1]; day 13, Treamid 1 mg/kg intragastrically Days 7-20)?
A: 11.6 ± 0.3*• mM/L

Q: And the “blood glucose level (mM/L)” value ([1]; day 16, Treamid 1 mg/kg intragastrically Days 7-20)?
A: 10.4 ± 1.4 mM/L

Q: What about the “blood glucose level (mM/L)” value ([1]; day 19, Treamid 1 mg/kg intragastrically Days 7-20) of the same molecule?
A: 12.0 ± 0.1 mM/L

Q: What about the “blood glucose level (mM/L)” value ([1]; day 21, Treamid 1 mg/kg intragastrically Days 7-20) of the same molecule?
A: 12.1 ± 0.4*• mM/L

Q: What about the “blood glucose level (mM/L)” value ([1]; day 24, Treamid 1 mg/kg intragastrically Days 7-20) of the same molecule?
A: 12.2 ± 1.0*• mM/L

Q: What about the “blood glucose level (mM/L)” value ([1]; day 28, Treamid 1 mg/kg intragastrically Days 7-20) of the same molecule?
A: 12.6 ± 1.1 mM/L

Q: And the “decrease of latency until the first mount after administration compared to before” value ([2]; Treamid 5 mg/kg)?
A: 1.8 times

Q: What about the “increase of total number of mating attempts” value ([2]; Treamid 5 mg/kg, statistically insignificant) of the same molecule?
A: 1.8 times

Q: What about the “LFM” value [2, 6] of the same molecule?
A: 462.00 ± 117.81 s

Q: What about the “the number of ejaculations, %” value [2, 6] of the same molecule?
A: 0%

Q: What about the “the number of mounts, abs.” value [2, 6] of the same molecule?
A: 3.67 ± 1.34 abs.

Q: What about the “LFM, sec” value [2, 7] of the same molecule?
A: 251.33 ± 103.86♦ sec

Q: What about the “the number of mounts, abs.” value [2, 7] of the same molecule?
A: 6.56 ± 1.68 abs.

Q: What about the “A, sec (time spent in the sexual stimulus zone)” value [3, 8] of the same molecule?
A: 154.00 ± 41.83#⋄ sec

Q: What about the “B, sex (time spent in the social stimulus zone)” value [3, 8] of the same molecule?
A: 95.60 ± 29.66 s

Q: And the “PS, s. u. (preference score)” value [3, 8]?
A: 0.64±0.09 s. u. and 0.64 ± 0.09⋄ s. u.

Q: And the “effect on sexual motivation” value ([3]; 14-month rats, Treamid 5 mg/kg, Sildenafil 3 mg/kg)?
A: has a stimulating effect

Q: What about the “A, sec (time spent in the sexual stimulus zone)” value [3, 9] of the same molecule?
A: 132.30 ± 23.69 s

Q: What about the “B, sec (time spent in the social stimulus zone)” value [3, 9] of the same molecule?
A: 113.60 ± 13.77 s

Q: What about the “PS, s. u. (preference score)” value [3, 9] of the same molecule?
A: 0.51 ± 0.06 s. u.

Q: What about the “decrease of time spent in the social stimulus zone compared with the control” value ([3]; Treamid 5 mg/kg, second test) of the same molecule?
A: 2 times

Q: And the “Total collagen (mg/ml) in the pancreas” value [4]?
A: 41 ± 4 mg/mL

Q: And the “Type I collagen (ng/ml) in the pancreas” value [4]?
A: 665 ± 55*• ng/ml

Q: What about the “percentage of motile sperm cells” value ([5]; group M ± m) of the same molecule?
A: 71.01 ± 1.80 %

Q: And the “The number of motile sperm cells (in %)” value ([5]; group X ± m, Speman 140 mg/kg)?
A: 79.83 ± 1.88#*⋄ %

Q: And the “The number of motile sperm cells (in %)” value ([5]; individual animals, Speman 140 mg/kg intragastrically)?
A: 77.42% and 79.09% and 82.72% and 74.67% and 85.26%

Q: And the “percentage of motile sperm cells” value ([5]; individual males)?
A: 74.55% and 69.44% and 70.20% and 65.52% and 75.34%
